Experimental data as given in ChEMBL document CHEMBL1136547, “2,3-Diarylbenzopyran derivatives as a novel class of selective cyclooxygenase-2 inhibitors” (Bioorg Med Chem Lett, 2003).

Experiments:
[1] = biological target: T1, Prostaglandin G/H synthase 1 (Mus musculus) (UniProt P22437); assay: In vitro percentage inhibition against prostaglandin G/H synthase 1 using freshly harvested mouse peritoneal macrophages at 10 ug/mL concentration
T1 sequence (whole entry): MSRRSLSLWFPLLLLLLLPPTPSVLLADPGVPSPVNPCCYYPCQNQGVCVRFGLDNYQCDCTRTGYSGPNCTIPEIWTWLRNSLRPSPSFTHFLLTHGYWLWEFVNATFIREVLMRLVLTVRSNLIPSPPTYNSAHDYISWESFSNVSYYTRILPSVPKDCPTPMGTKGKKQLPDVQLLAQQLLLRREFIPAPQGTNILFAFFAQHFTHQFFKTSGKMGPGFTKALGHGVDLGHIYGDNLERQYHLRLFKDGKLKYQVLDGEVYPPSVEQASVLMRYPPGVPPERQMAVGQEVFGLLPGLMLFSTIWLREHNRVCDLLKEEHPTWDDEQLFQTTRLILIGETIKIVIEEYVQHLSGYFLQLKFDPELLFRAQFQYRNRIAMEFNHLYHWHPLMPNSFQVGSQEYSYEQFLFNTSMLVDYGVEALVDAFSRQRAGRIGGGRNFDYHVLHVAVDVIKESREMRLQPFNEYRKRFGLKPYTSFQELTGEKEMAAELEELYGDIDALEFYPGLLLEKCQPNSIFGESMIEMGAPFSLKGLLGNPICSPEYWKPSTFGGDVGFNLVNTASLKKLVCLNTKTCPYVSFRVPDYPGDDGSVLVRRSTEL

[2] = biological target: T2, Prostaglandin G/H synthase 2 (Mus musculus, UniProt Q05769); assay: In vitro inhibitory concentration against prostaglandin G/H synthase 2 using freshly harvested mouse peritoneal macrophages
T2 sequence (Q05769 whole entry): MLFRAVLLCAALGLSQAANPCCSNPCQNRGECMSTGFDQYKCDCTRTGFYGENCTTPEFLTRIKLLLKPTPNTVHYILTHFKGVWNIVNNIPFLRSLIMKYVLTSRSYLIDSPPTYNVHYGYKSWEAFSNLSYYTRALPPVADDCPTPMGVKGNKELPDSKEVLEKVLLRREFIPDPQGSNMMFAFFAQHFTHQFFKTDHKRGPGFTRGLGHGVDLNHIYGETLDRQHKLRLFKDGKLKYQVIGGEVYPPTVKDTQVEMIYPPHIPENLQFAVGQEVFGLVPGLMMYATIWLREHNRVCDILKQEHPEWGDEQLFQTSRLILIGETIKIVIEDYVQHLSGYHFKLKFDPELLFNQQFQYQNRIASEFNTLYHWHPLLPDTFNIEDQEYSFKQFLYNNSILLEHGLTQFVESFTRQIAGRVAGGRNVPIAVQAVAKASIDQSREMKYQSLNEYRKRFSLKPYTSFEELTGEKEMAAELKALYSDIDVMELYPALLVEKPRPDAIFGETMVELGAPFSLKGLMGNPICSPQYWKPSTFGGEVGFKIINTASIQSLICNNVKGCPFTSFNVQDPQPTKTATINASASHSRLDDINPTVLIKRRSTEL

[3] = biological target: T3, Prostaglandin G/H synthase 2 (Mus musculus) (UniProt Q05769); assay: In vitro percentage inhibition against Prostaglandin G/H synthase 2 using freshly harvested mouse peritoneal macrophages at 10 ug/mL concentration
T3 sequence (whole entry): T2 sequence (Q05769 whole entry)

[4] = Tmax in rat at 10 mg/kg; type: ADME, organism-based; design: dose 10 mg/kg; conditions: in vivo
Rattus norvegicus [5] = assay: Anti-inflammatory activity in Dawley rats by carrageenan-induced rat paw edema at a dose of 10 mg/kg by oral administration; type: functional
Rattus norvegicus [6] = assay: Anti-inflammatory activity in Dawley rats by carrageenan-induced rat paw edema at a dose of 30 mg/kg by oral administration; type: functional
[7] = Cmax in rat at 10 mg/kg; type: ADME, organism-based; design: dose 10 mg/kg; conditions: in vivo
[8] = Half-life period in rat at 10 mg/kg; type: ADME, organism-based; design: dose 10 mg/kg; conditions: in vivo
Rattus norvegicus [9] = assay: Anti-inflammatory activity in Dawley rats by carrageenan-induced rat paw edema at a dose of 3 mg/kg by oral administration; type: functional
Rattus norvegicus [10] = assay: Anti-inflammatory activity in Dawley rats by carrageenan-induced rat paw edema at a dose of 30 mg/kg; type: functional
Rattus norvegicus [11] = assay: Anti-inflammatory activity in Dawley rats by carrageenan-induced rat paw edema at a dose of 3 mg/kg; type: functional
[12] = biological target: T1, Prostaglandin G/H synthase 1 (Mus musculus); assay: In vitro percentage inhibition against using freshly harvested mouse peritoneal macrophages Prostaglandin G/H synthase 1 at 10 ug/mL concentration
[13] = biological target: T3, Prostaglandin G/H synthase 2 (Mus musculus); assay: In vitro percentage inhibition against Prostaglandin G/H synthase 2 using freshly harvested mouse peritoneal macrophages at 3 ug/mL concentration

Row | inhibition [1] [%] | IC50 [2] [nM] | SMILES | other results
1 | 90 | 283 | CSc1ccc(-c2c(-c3ccc(S(N)(=O)=O)cc3)oc3ccccc3c2=O)cc1 | 
2 | < 5 | 948 | Cc1ccccc1-c1c(-c2ccc(S(C)(=O)=O)cc2)oc2ccccc2c1=O | 
3 | 18 | 2310 | COc1ccc(-c2c(-c3ccc(S(C)(=O)=O)cc3)oc3ccccc3c2=O)cn1 | 
4 | < 5 | 532 | CS(=O)(=O)c1ccc(-c2oc3ccccc3c(=O)c2-c2cccc(F)c2)cc1 | 
5 | 67 | 126 | NS(=O)(=O)c1ccc(-c2oc3ccccc3c(=O)c2-c2ccc(F)cc2)cc1 | 
6 | < 5 | 520 | CS(=O)(=O)c1ccc(-c2oc3ccccc3c(=S)c2-c2ccc(Cl)c(Cl)c2)cc1 | 
7 | < 5 |  | CS(=O)(=O)c1ccc(-c2oc3ccccc3c(=O)c2-c2ccncc2)cc1 | inhibition [3]: 24%
8 | 61 | 106 | NS(=O)(=O)c1ccc(-c2oc3ccccc3c(=O)c2-c2ccccc2)cc1 | 
9 | 84 | 393 | COc1ccc(-c2c(-c3ccc(S(N)(=O)=O)cc3)oc3ccccc3c2=O)cc1 | 
10 | 12 | 1260 | CS(=O)(=O)c1ccc(-c2oc3ccc(F)cc3c(=O)c2-c2cccnc2)cc1 | Tmax [4]: 5 h; inhibition in vivo at 10 mg/kg (Rattus norvegicus [5]): 26%; inhibition in vivo at 30 mg/kg (Rattus norvegicus [6]): 41%; Cmax [7]: 6900 ng/mL; half-life [8]: 7.4 h; inhibition in vivo at 3 mg/kg (Rattus norvegicus [9]): 20%
11 | < 5 | 76.1 | CS(=O)(=O)c1ccc(-c2oc3ccccc3c(=O)c2-c2ccccc2F)cc1 | 
12 | < 5 | 324 | CS(=O)(=O)c1ccc(-c2oc3ccccc3c(=O)c2-c2cc3ccccc3s2)cc1 | 
13 | 60 | 177 | NS(=O)(=O)c1ccc(-c2oc3ccccc3c(=O)c2-c2ccccc2F)cc1 | 
14 | < 5 | 365 | CS(=O)(=O)c1ccc(-c2oc3ccccc3c(=O)c2-c2cccc(Cl)c2)cc1 | 
15 | < 5 | 3800 | CS(=O)(=O)c1ccc(-c2oc3ccccc3c(=O)c2-c2cccc3ccccc23)cc1 | 
16 | < 5 | 142 | COc1ccc(-c2c(-c3ccc(S(C)(=O)=O)cc3)oc3ccccc3c2=S)cc1 | 
17 | < 5 | 203 | CS(=O)(=O)c1ccc(-c2oc3ccccc3c(=O)c2-c2ccc(F)cc2)cc1 | 
18 | < 5 | 102 | CS(=O)(=O)c1ccc(-c2oc3ccccc3c(=S)c2-c2ccccc2)cc1 | 
19 | < 5 |  | Cn1cc(-c2c(-c3ccc(S(C)(=O)=O)cc3)oc3ccccc3c2=O)cn1 | inhibition [3]: 13%
20 | 17 |  | CS(=O)(=O)c1ccc(-c2oc3ccccc3c(=O)c2-c2ccccn2)cc1 | inhibition [3]: 44%
21 | < 5 | 195 | CS(=O)(=O)c1ccc(-c2oc3ccccc3c(=S)c2-c2ccccc2F)cc1 | 
22 | 13 |  | CS(=O)(=O)c1ccc(-c2oc3ccccc3c(=O)c2-c2cccnc2)cc1 | inhibition in vivo at 30 mg/kg (Rattus norvegicus [10]): 41%; inhibition in vivo at 3 mg/kg (Rattus norvegicus [11]): 18%
23 |  | 925 | NS(=O)(=O)c1ccc(-c2oc3ccccc3c(=O)c2-c2ccc3c(c2)OCO3)cc1 | inhibition [12]: 75%
24 | < 5 |  | CS(=O)(=O)c1ccc(-c2oc3ccccc3c(=O)c2-c2cc(Cl)cc(Cl)c2)cc1 | inhibition [13]: 7%
25 | < 5 | 930 | CS(=O)(=O)c1ccc(-c2oc3ccccc3c(=O)c2-c2ccccc2)cc1 | 
26 | < 5 | 269 | CS(=O)(=O)c1ccc(-c2oc3ccccc3c(=O)c2-c2ccc(Cl)c(Cl)c2)cc1 | 
27 | < 5 | 359 | CS(=O)(=O)c1ccc(-c2oc3ccccc3c(=O)c2-c2ccc(Cl)cc2Cl)cc1 | 
28 | < 5 | 517 | COc1ccc(-c2c(-c3ccc(S(C)(=O)=O)cc3)oc3ccccc3c2=O)cc1 | 
29 | < 5 | 73.1 | CS(=O)(=O)c1ccc(-c2oc3ccccc3c(=S)c2-c2ccc(F)cc2)cc1 | 
30 | < 5 |  | CS(=O)(=O)c1ccc(-c2oc3ccccc3c(=O)c2-c2ccc(Cl)cc2)cc1 | 
